# Measurements taken from ChEMBL document CHEMBL5696441 (Nat Chem Biol, 2011).
# Legend:
# [1] = target: Mitogen-activated protein kinase 13 (Homo sapiens) (UniProt O15264); assay: Inhibition of P38delta (unknown origin) assessed as remaining activity at 1 uM by Kinome scan method relative to control
# [2] = tested on: Epidermal growth factor receptor (Homo sapiens), P00533 [UNDEFINED MUTATION]; assay: Inhibition of human EGFR d752-759 mutant assessed as residual activity at 1 uM using PolyEY as substrate in presence of 33P-ATP by ProQinase assay relative to control
# [3] = tested on: Tyrosine-protein kinase ABL1 (Homo sapiens), P00519 [H396P]; assay: Inhibition of ABL1 H396P mutant (unknown origin) assessed as remaining activity at 1 uM by Kinome scan method relative to control
# [4] = tested on: Hepatocyte growth factor receptor (Homo sapiens), P08581 [Y1230C]; assay: Inhibition of human MET Y1230C mutant assessed as residual activity at 1 uM using poly(Ala,Glu,Lys,Tyr)6:2:5:1 as substrate in presence of 33P-ATP by ProQinase assay relative to control
# [5] = target: Platelet-derived growth factor receptor beta (Homo sapiens) (UniProt P09619); assay: Inhibition of human PDGFRbeta assessed as residual activity at 1 uM using poly(Ala,Glu,Lys,Tyr) as substrate in presence of 33P-ATP by ProQinase assay relative to control
# [6] = target: G protein-coupled receptor kinase 3 (Homo sapiens) (UniProt P35626); assay: Inhibition of human GRK3 assessed as residual activity at 1 uM using casein as substrate in presence of 33P-ATP by ProQinase assay relative to control
# [7] = target: T1, Tyrosine-protein kinase JAK3 (Homo sapiens) (UniProt P52333); assay: Inhibition of human JAK3 assessed as residual activity at 1 uM using poly(Ala,Glu,Lys,Tyr)6:2:5:1 as substrate in presence of 33P-ATP by ProQinase assay relative to control
# T1 sequence (whole entry): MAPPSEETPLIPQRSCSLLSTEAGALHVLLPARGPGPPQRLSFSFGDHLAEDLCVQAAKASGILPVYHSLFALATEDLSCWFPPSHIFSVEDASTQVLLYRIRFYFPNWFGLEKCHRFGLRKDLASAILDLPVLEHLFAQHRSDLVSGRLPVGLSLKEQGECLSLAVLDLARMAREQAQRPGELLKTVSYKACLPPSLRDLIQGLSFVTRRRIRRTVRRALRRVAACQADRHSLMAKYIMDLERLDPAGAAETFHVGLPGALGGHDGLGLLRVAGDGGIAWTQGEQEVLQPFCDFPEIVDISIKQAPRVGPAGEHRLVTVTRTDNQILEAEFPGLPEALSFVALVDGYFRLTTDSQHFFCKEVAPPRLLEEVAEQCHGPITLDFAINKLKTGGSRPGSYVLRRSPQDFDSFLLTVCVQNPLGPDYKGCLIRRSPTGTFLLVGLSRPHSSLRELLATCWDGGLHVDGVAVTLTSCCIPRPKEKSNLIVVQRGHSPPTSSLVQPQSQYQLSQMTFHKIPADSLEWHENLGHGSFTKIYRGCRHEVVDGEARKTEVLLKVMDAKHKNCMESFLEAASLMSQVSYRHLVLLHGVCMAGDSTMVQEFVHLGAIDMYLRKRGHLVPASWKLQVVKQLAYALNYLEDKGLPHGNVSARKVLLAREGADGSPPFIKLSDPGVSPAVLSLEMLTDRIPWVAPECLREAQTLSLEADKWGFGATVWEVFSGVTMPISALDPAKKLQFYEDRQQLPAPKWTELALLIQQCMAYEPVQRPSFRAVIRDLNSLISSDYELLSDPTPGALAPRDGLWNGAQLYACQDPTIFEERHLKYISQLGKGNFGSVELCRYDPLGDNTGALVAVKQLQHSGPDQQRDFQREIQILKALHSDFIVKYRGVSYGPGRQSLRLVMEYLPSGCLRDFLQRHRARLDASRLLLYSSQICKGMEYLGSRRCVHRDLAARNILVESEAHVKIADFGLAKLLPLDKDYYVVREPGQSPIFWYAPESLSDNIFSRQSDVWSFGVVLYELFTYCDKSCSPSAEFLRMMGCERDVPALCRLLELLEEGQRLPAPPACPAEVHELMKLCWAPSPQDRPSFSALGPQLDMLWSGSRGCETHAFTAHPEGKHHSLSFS
# [8] = Anti-inflammatory activity against human derived high respond PBMC cells assessed as inhibition in stimulated MCP-1 chemokine release at 10 uM incubated for 2 hrs in the presence of LPS/SEB/aCD28 by Luminex based sandwich immunoassay relative to control; type: functional
# [9] = target: Mitogen-activated protein kinase kinase kinase 14 (Homo sapiens) (UniProt Q99558); assay: Inhibition of human NIK assessed as residual activity at 1 uM using RBER-CHKtide as substrate in presence of 33P-ATP by ProQinase assay relative to control
# [10] = target: Ephrin type-A receptor 2 (Homo sapiens) (UniProt P29317); assay: Inhibition of human EPHA2 assessed as residual activity at 1 uM using polyEy as substrate in presence of 33P-ATP by ProQinase assay relative to control
# [11] = tested on: Fibroblast growth factor receptor 3 (Homo sapiens), P22607 [K650E]; assay: Inhibition of human FGFR3 K650E mutant assessed as residual activity at 1 uM using PolyEY as substrate in presence of 33P-ATP by ProQinase assay relative to control
# [12] = target: Protein-tyrosine kinase 2-beta (Homo sapiens) (UniProt Q14289); assay: Inhibition of PYK2 (unknown origin) assessed as remaining activity at 1 uM by Kinome scan method relative to control
# [13] = target: Phosphatidylinositol 4,5-bisphosphate 3-kinase catalytic subunit alpha isoform (Homo sapiens) (UniProt P42336); assay: Inhibition of PIK3CA (unknown origin) assessed as remaining activity at 1 uM by Kinome scan method relative to control
# [14] = target: STE20/SPS1-related proline-alanine-rich protein kinase (Homo sapiens) (UniProt Q9UEW8); assay: Inhibition of human STK39 assessed as residual activity at 1 uM using RBER-CDC25tide as substrate in presence of 33P-ATP by ProQinase assay relative to control
# [15] = target: Macrophage colony-stimulating factor 1 receptor (Homo sapiens) (UniProt P07333); assay: Inhibition of human CSF1R assessed as residual activity at 1 uM using polyEY as substrate in presence of 33P-ATP by ProQinase assay relative to control
# [16] = target: Ribosomal protein S6 kinase alpha-6 (Homo sapiens) (UniProt Q9UK32); assay: Inhibition of C-terminal kinase domain RPS6KA6 (unknown origin) assessed as remaining activity at 1 uM by Kinome scan method relative to control
# [17] = target: Cyclin-dependent kinase 2/cyclin E1 (Homo sapiens) (UniProt P24864+P24941); assay: Inhibition of human CDK2/CycE1 assessed as residual activity at 1 uM using RBER-CHKtide as substrate in presence of 33P-ATP by ProQinase assay relative to control; type: protein-complex assay
# Sequence of Fibroblast growth factor receptor 3 (Homo sapiens), P22607 [K650E] (P22607 whole entry K650E): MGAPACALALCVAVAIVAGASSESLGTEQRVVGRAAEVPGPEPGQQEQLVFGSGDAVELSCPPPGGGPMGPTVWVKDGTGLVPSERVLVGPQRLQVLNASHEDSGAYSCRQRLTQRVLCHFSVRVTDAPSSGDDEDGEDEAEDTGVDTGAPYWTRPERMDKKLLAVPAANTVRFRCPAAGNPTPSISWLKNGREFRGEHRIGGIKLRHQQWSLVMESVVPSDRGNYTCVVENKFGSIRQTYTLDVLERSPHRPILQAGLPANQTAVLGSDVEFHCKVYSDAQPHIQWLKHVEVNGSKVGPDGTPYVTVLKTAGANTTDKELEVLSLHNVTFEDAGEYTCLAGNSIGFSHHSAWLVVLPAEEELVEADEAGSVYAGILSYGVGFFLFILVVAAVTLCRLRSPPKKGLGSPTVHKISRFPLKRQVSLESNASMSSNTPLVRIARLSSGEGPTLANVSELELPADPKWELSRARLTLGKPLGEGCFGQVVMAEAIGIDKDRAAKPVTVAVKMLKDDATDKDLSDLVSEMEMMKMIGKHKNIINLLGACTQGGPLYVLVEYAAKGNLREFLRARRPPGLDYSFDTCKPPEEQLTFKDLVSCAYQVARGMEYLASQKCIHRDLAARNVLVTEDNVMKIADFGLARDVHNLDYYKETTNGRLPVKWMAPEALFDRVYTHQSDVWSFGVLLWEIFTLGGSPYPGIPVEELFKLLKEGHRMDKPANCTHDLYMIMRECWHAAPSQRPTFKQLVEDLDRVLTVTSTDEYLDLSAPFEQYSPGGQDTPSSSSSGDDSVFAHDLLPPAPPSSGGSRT
# Sequence of Mitogen-activated protein kinase kinase kinase 14 (Homo sapiens) (Q99558 whole entry, looked up): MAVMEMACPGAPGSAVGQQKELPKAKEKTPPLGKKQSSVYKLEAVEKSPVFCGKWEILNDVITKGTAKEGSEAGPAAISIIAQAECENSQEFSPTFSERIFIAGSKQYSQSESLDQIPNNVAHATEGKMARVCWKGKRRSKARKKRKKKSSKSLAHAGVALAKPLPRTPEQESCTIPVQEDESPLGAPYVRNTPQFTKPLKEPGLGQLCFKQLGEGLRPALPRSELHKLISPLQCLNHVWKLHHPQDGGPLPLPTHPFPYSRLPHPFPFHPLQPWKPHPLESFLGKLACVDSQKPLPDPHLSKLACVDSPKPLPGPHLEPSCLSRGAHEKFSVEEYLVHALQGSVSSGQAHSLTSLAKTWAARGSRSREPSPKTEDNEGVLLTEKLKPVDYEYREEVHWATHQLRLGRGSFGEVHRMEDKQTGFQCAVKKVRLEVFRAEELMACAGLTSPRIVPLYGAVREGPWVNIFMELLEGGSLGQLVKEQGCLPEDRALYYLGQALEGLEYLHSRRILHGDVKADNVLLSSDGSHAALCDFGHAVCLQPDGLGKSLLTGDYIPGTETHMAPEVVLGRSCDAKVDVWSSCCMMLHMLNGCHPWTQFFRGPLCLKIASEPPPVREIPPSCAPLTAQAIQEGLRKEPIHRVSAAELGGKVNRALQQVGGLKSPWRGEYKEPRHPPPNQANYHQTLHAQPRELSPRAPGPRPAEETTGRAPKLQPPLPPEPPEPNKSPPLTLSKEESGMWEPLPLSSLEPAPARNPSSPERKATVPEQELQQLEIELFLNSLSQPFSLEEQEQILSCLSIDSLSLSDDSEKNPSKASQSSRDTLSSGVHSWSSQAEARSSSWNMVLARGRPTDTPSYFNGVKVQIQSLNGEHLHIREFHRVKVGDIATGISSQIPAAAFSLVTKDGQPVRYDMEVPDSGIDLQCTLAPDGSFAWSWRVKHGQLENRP
# Sequence of G protein-coupled receptor kinase 3 (Homo sapiens) (P35626 whole entry): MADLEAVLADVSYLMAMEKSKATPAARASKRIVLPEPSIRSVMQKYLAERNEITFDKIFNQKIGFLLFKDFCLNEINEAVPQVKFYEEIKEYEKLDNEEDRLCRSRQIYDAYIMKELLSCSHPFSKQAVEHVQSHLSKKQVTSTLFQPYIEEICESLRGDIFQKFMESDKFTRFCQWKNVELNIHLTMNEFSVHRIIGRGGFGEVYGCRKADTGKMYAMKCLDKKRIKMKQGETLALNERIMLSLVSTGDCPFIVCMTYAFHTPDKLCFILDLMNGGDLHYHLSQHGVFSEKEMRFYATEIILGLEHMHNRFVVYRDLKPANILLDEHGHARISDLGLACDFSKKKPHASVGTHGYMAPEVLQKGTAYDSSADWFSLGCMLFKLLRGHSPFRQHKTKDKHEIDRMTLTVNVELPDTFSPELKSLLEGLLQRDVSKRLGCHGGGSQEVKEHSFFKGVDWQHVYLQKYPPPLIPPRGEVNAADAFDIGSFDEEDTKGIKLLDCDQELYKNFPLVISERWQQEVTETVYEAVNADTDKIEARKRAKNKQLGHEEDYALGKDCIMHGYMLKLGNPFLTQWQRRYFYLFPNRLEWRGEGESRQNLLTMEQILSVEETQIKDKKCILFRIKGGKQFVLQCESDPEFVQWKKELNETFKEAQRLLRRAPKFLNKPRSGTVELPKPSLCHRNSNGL
# Sequence of Ephrin type-A receptor 2 (Homo sapiens) (P29317 whole entry): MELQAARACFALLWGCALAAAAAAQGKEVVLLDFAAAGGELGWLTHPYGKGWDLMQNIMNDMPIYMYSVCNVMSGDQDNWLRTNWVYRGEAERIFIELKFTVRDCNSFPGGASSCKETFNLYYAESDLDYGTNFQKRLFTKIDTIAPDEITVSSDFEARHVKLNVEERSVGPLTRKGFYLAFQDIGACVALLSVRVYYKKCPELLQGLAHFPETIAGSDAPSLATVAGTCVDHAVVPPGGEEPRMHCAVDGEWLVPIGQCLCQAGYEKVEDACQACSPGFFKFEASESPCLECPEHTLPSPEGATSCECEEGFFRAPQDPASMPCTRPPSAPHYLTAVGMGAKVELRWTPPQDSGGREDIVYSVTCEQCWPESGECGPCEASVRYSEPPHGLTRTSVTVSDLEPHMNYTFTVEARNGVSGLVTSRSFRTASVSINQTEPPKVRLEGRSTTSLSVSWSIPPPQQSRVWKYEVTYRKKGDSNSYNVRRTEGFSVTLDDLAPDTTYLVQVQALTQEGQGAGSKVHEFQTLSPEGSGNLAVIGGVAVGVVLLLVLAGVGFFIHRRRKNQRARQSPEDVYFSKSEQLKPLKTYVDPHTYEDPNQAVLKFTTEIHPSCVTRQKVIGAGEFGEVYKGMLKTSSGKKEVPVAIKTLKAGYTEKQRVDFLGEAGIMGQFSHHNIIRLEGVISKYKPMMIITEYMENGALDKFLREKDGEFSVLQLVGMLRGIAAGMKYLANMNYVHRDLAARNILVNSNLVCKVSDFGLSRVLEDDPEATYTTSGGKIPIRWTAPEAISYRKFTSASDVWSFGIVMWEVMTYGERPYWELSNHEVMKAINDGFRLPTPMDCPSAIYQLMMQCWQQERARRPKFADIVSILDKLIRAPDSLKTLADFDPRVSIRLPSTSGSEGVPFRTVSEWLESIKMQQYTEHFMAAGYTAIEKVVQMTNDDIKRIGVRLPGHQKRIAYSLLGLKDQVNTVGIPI
# Sequence of Protein-tyrosine kinase 2-beta (Homo sapiens) (Q14289 whole entry, looked up, canonical isoform): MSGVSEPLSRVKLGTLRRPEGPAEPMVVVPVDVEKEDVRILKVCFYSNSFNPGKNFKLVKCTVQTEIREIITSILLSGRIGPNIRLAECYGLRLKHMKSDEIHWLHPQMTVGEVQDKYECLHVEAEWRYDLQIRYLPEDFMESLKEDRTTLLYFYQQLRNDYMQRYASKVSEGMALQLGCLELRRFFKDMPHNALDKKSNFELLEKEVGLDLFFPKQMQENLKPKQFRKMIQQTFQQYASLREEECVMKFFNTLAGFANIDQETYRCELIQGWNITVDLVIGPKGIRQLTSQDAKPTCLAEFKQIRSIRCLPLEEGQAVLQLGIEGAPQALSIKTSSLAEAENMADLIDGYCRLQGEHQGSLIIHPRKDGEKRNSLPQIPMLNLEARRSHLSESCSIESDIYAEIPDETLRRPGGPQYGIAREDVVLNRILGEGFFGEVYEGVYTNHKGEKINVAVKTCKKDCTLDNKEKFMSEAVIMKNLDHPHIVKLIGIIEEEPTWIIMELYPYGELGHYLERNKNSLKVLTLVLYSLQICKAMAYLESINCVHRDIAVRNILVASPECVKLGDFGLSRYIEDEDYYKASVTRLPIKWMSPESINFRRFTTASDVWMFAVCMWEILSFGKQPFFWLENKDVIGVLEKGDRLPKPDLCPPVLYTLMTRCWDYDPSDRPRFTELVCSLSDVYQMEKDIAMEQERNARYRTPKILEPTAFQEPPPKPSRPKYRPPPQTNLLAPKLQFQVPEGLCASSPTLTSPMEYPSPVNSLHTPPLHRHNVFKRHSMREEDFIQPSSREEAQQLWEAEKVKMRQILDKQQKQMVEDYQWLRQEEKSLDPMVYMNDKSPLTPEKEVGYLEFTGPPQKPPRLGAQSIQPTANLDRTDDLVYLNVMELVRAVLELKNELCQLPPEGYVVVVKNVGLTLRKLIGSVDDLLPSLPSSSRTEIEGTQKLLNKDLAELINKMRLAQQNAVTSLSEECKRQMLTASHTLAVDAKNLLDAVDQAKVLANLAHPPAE
# Sequence of Mitogen-activated protein kinase 13 (Homo sapiens) (O15264 whole entry): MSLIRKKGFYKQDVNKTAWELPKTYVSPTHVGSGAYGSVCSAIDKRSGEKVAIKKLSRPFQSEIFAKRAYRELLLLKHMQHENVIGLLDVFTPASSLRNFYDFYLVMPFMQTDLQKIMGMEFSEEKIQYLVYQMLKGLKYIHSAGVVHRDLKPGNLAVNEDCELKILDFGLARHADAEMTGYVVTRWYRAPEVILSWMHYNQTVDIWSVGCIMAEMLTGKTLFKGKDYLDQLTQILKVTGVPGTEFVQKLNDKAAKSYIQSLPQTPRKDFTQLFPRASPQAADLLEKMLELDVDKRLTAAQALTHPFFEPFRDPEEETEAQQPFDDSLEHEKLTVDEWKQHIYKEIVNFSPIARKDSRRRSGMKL
compound,measurement,setting,value
O=C1c2ccc(Nc3ccc(F)cc3F)cc2CCc2ccc(OC[C@H](O)CO)cc21 [Skepinone-L],Activity,[1],85%
same,Activity,[2],83%
same,Activity,[3],100%
same,Activity,[4],97%
same,Activity,[5],96%
same,Activity,[6],95%
same,Activity,[7],103%
same,inhibition at 10 µM,[8],25%
same,Activity,[9],96%
same,Activity,[10],119%
same,Activity,[11],99%
same,Activity,[12],100%
same,Activity,[13],100%
same,Activity,[14],53%
same,Activity,[15],106%
same,Activity,[16],77%
same,Activity,[17],85%
